# What was measured:
# [1] = system: Gne^−/− hGNED176V-Tg mice; details: administration in water; Malicdan et al. 2009; cited from earlier work
# PSA-NCAM [2] = assay: Neuraminidase digestion of normal human serum, Western blot with 123C3 antibody; format: biochemical; details: 37° C. 4 hours, 1 m unit enzyme per 3 μg protein, FIG. 4A lane 2, estimated
# Description: Experiments were performed to determine whether PSA-NCAM can be detected in human serum using well-defined mouse monoclonal antibodies raised against human PSA-NCAM (123C3). Human serum was purified by Aurum serum protein kit (Bio-Rad) to remove albumin and IgG which can interfere with SDS-PAGE analysis. Raw serum was diluted 4 times with protein binding buffer (supplied in the kit) and applied to the column. The albumin/IgG depleted serum was eluted by centrifugation at 10,000 g for 20 seconds and protein concentration was determined by modified Lowry assay (Bio-Rad DC protein assay).
# Purified serum was incubated in neuraminidase from Vibrio cholera (Sigma) at 37° C. for 4 hours in order to cleave sialic acid (SA) from serum polysialic acid-glycoproteins, including PSA-NCAM. Digestion was carried out at a concentration of 1 m unit enzyme per 3 μg of protein in 20 mM Tris buffer, pH 5.8. A negative control was included in the experiment under the same condition but without adding the neuraminidase. At the end of incubation, the mixture was cleaned up with micro bio-spin P30 columns (BioRad).
# Proteins were analyzed on 10% denaturing Tris-glycine SDS-PAGE gel (Invitrogen) under reducing condition. […]
# PSA-NCAM [3] = assay: Neuraminidase digestion of normal human serum, Western blot with C-20 polyclonal antibody; format: biochemical; details: 37° C. 4 hours, 0.35 m unit enzyme per μl serum, FIG. 5 lane 5
# Description: Experiments were performed to investigate the pattern of serum PSA-NCAM sialylation between normal controls and HIBM patients using a polyclonal antibody raised against human PSA-NCAM. Human serum was purified by a two-steps protocol to enrich PSA-NCAM. Raw sera from both normal human and HIBM patient were extracted by Mem-PER® membrane protein extraction kit (Thermo Scientific) according to the manufacturer's protocol. Serum was first mixed with a detergent and then a second detergent was added to solubilize membrane proteins. After centrifugation at 10,000 g for 3 minutes, the mixture was incubated at 37° C. to separate hydrophobic proteins from hydrophilic proteins through phase partitioning. The top hydrophilic layer was then further purified by SDS-PAGE sample prep kit (Thermo Scientific) to remove detergents and other contaminants that interfere with SDS-PAGE analysis.
# Purified serum was incubated with Vibrio cholera neuraminidase (Sigma) at 37° C. for 4 hours in order to cleave sialic acid (SA) from serum polysialic acid-glycoproteins, including PSA-NCAM. Digestion was carried out at a concentration of 0.35 m unit enzyme per μl of serum. […]
# Proteins were analyzed on a 10% Mini-Protean precast gel (BioRad) under reducing condition with 5% 2-mercaptoethanol. Final protein concentration was measured by Bradford Ultra (Expedeon). […]
# PSA-NCAM [4] = assay: Sialidase treatment of normal human serum, Western blot with RNL-1 antibody; format: biochemical; details: normal human serum treated with sialidase
# Description: (§1) Serum samples from normal individuals, HIBM patients before treatment, patients suffering from myopathy but not HIBM, and a HIBM patient on ManNAc therapy for 2 years were purified to reduce serum proteins. The samples were subjected to SDS PAGE and stained with a monoclonal antibody to NCAM (RNL-1, SantaCruz Biotech, Inc., CA) capable of detecting sialylated and unsialylated forms of NCAM (FIGS. 2 and 3). As a control, serum samples from healthy individuals were prepared as described above and treated with sialidase to remove sialic acid.
# (§2) For Western blotting, serum protein was extracted from 50 ul serum samples using Mem-PER® Eukaryotic Membrane Protein Extraction Reagent Kit (Thermo Scientific), then the hydrophilic (top) layer was cleaned and purified by SDS-PAGE Sample Prep Kit (Thermo Scientific). Final protein concentration was measured by BradfordUltra (Expedeon), and […] protein (15 uL) loaded per lane for electrophoresis separation. […] Primary (RNL-1, SantaCruz Biotech, Inc., CA) and secondary antibodies were applied, and detected using horseradish peroxidase (HRP) chemi-luminescence substrate (FIG. 3). […]
# (§3) For desialylated control sample, serum protein from healthy non-myopathic individuals was treated with Vibrio cholerae neuroaminidase (Sigma) (FIG. 3, lane 8). HIBM patients who were routinely ingesting N-Acetylmannosamine (ManNAc) were analyzed as well (FIG. 3, lane 7).
# [5] = system: mice homozygous for the M712T Gne mutation; details: ManNAc in water to mutant mice; Galeano et al. 2007; cited from earlier work
# PSA-NCAM [6] = assay: Western blot of serum PSA-NCAM (RNL-1 antibody) in HIBM patient on ManNAc; format: in vivo, human; details: serum of ManNAc self-treated HIBM patient (2 years), FIG. 3 lane 7
# Description: as §1, §2, §3
molecule,measurement,setting,value
sialyl-lactose,muscle atrophy and weakness,[1],reduced or prevented
"neuraminidase: neuraminidase from Vibrio cholera (Sigma), used to cleave sialic acid from serum glycoproteins",reduction of molecular weight of the PSA-NCAM triplet,PSA-NCAM [2],10-15 kDa
same,intensity of the 130 kDa and 60 kDa PSA-NCAM bands,PSA-NCAM [3],significantly reduced in intensity
same,upper and middle PSA-NCAM bands on Western blot,PSA-NCAM [4],disappeared
"CC(=O)N[C@H]1[C@H]([C@H](O)[C@H](O)CO)OC(O)(C(=O)O)C[C@@H]1O (some centres unmarked) [sialic acid, 5-N-acetylneuraminic acid]",muscle atrophy and weakness,[1],reduced or prevented
"CC(=O)N[C@@H]1C(O)O[C@H](CO)[C@@H](O)[C@@H]1O (some centres unmarked) [ManNAc, N-acetylmannosamine]",renal histology (podocyte foot processes),[5],improved renal histology
same,sialylation of brain PSA-NCAM,[5],increased sialylation of brain PSA-NCAM
same,sialylation of renal podocalyxin,[5],increased sialylation of renal podocalyxin
same,survival,[5],improved survival
same,muscle atrophy and weakness,[1],reduced or prevented
same,PSA-NCAM signal at ˜150 kD band on Western blot,PSA-NCAM [6],improved signal

# From patent US20120276560A1, “BIOMARKERS FOR ASSESSING SIALIC ACID DEFICIENCIES” (priority 2010, published 2012)
